According to paper PMC2778829, “Functional Characterization of the Canine Heme-Regulated eIF2α Kinase: Regulation of Protein Synthesis” (Advances in Hematology, 2009):

Assays:
Type in all cases: biochemical
[1] = target: T1, canine heme-regulated inhibitor (HRI), heme-regulated eIF2α kinase (Canis lupus, UniProt C4PB17); test: AlphaScreen kinase assay with purified HRI, biotinylated Poly-GT substrate, […] ATP
T1 construct: full-length HRI, His6-tagged, expressed in Sf9 cells

[2] = target: T2, mouse heme-regulated inhibitor (HRI), heme-regulated eIF2α kinase (Mus musculus, UniProt Q9Z2R9); test: in-vitro kinase assay (AlphaScreen) with purified HRI
T2 construct: gene Eif2ak1; expressed in Sf9 cells, purified by Ni-NTA

[3] = target: T3, human heme-regulated inhibitor (HRI), heme-regulated eIF2α kinase (Homo sapiens, UniProt Q9BQI3); test: as above
T3 construct: gene EIF2AK1; expressed in Sf9 cells, purified by Ni-NTA

Measured: IC50

T1 sequence (C4PB17 1-630): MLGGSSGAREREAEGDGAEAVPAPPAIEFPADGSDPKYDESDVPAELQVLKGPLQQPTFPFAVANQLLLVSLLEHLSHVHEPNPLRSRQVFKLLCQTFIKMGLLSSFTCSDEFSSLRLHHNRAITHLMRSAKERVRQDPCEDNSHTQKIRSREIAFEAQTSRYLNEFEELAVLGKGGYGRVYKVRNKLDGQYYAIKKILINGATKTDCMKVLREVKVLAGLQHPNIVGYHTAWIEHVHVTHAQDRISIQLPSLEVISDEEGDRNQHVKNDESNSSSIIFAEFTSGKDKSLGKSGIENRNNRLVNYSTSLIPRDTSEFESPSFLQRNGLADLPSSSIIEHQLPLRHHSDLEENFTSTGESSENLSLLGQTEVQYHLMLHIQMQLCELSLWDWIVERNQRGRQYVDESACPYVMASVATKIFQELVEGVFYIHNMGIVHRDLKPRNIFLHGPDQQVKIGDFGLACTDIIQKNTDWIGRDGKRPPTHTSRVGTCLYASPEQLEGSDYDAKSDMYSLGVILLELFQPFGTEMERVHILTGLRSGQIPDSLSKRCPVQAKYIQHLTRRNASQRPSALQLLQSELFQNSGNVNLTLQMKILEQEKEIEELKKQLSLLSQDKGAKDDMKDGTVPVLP
T2 sequence (Q9Z2R9 whole entry): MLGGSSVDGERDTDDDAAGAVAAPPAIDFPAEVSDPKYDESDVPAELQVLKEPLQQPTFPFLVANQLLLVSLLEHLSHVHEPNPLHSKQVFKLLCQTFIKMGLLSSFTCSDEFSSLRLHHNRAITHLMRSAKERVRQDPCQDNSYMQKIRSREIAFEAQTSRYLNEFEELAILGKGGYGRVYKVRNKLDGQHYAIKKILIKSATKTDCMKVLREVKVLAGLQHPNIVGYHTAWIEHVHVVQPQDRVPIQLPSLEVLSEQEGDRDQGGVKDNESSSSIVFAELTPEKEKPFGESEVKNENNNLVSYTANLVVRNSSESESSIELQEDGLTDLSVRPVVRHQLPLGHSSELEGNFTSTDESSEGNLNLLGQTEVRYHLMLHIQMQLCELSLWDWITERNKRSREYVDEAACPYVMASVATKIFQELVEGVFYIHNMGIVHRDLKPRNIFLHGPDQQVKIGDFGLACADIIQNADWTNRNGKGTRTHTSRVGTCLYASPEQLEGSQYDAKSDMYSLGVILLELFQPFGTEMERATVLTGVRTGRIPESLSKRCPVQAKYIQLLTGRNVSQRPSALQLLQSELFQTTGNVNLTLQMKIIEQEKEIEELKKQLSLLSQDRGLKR
T3 sequence (Q9BQI3 whole entry): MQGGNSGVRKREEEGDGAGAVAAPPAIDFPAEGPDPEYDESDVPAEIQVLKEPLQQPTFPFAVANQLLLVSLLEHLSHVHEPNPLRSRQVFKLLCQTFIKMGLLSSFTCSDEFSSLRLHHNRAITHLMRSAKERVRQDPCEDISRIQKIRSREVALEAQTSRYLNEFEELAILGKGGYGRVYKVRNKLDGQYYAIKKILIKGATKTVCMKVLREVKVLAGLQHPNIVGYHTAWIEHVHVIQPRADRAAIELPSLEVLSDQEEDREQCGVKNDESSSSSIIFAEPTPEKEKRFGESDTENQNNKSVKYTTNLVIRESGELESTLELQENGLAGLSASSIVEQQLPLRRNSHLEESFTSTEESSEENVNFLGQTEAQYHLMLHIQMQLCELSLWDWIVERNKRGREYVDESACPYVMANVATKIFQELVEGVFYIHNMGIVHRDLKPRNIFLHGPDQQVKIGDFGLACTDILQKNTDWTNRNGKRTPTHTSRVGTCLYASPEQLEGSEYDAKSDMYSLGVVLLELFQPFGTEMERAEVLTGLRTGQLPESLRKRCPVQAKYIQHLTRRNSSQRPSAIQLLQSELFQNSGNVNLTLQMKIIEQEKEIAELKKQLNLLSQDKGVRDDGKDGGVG

O=c1c(O)c(-c2ccc(O)c(O)c2)oc2cc(O)cc(O)c12 [quercetin, 3,3′,4′,5,7-pentahydroxyflavone]
~1000 nM: all assays above
